From US20230416262A1, “TRPML MODULATORS” (Casma Therapeutics, Inc., priority 2020, published 2023) come the findings set out here.

The test system of this test is THP-1 cells. Description: Lamp1 lysosomal exocytosis assay. It counts as cell-based. The conditions noted are these: Homo sapiens, 55 min, 55 min incubation, top dose 20 μM. How it is done: For the Lamp1 lysosomal exocytosis assay, a human monocytic suspension cell line (THP-1) was used. Cells in culture should be used between a density of […] and 1.2e6/mL on the day of the assay. For each 96-well assay plate to be used, pellet 11e6 THP-1 cells at 330×g for 5 min in a 50 mL conical tube, aspirate media and resuspend in 22 mLs of RPMI 1640/10% FBS media for a final cell concentration of 5e5/mL. Prior to addition of cells to the assay plate, perform a 7 pt dilution curve using a top dose of compound at 2 mM and use a 3-fold serial dilution, the 8th point is DMSO only. Final top dose of compound in the assay was 20 μM. 2 μL of each serial dilution was transferred to a new 96-well v-bottom assay plate. 198 μL of cells (1e5 total cells/well) was prepared as above in each well of the assay plate and incubated at 37° C./5% CO2/95% RH for 55 min. After the 55 min incubation, cells were pelleted for 5 min at 4 C at 400×g in a tabletop centrifuge. The media was separated from the cell pellets in the plate. The pellets were washed using 200 μL ice cold buffer (PBS Ca^++/Mg^++ containing 2% final BSA and 80 μM final Dynasore). Cells were pelleted again at 400×g-5 min in a 4° C. tabletop centrifuge. Buffer was separated from cells. Each well was suspended in 75 uL Lamp1-PE antibody buffer (PBS Ca^++/Mg^++ containing 2% final BSA with 80 uM final Dynasore and 1:800 final dilution of Lamp 1-PE labeled antibody). After a 45 min antibody incubation on ice, 25 μL of sytox green was added (I drop/mL buffer), and each well was mixed and incubated for an additional 15 min on ice. After the 15 min sytox green incubation, 100 μL of ice-cold buffer (PBS Ca^++/Mg^++ containing 2% final BSA and 80 uM final Dynasore) was added and cells were pelleted for 5 min at 400×g. The buffer was removed and each sample was resuspended in 100 uL of ice-cold buffer (PBS Ca^++/Mg^++ containing 2% final BSA and 80 μM final Dynasore). FACs gating strategy: FACS analyze for sytox green (A488) and Lamp1-PE (DsRed). First gate against FSC-A/SSC-A to find non-fragmented or ‘live’ THP-1 cells. Next gate against FITC-A/FSC-A to omit sytox green positive cells. Then gate for FSC-A/FSC-H to remove any doublet cells. The last gate was a histogram for PE. The statistics for ‘count’ and ‘geometric mean fluorescence intensity’ (gWFI) for PE were repoted on the last gate.
Compounds having an activity designated as “++++” provided an exocytosis readout of ≤0.50 μM; compounds having an activity designated as “+++” provided an exocytosis readout of 0.51-1.00 μM; compounds having an activity designated as “++” provided an exocytosis readout of 1.01-5.00 μM; and compounds having an activity designated as “+” provided an exocytosis readout of ≥5.01 μM
`O=C(OCc1cnoc1)N1CCC2(CC1)CN(S(=O)(=O)c1ccc(C(F)F)cc1)c1ccccc12` [Compound I-173, isoxazol-4-ylmethyl 1-((4-(difluoromethyl)phenyl)sulfonyl)spiro[indoline-3,4′-piperidine]-1′-carboxylate] registered a 50% effective concentration (EC50) of 1.01 to 5 µM.

In turn, `O=C(Cc1ccccc1)N1CCC2(CC1)CN(S(=O)(=O)c1ccc(C(F)F)cc1)c1ccccc12` [Compound I-175, 1-(1-((4-(difluoromethyl)phenyl)sulfonyl)spiro[indoline-3,4′-piperidin]-1′-yl)-2-phenylethan-1-one] displayed a concentration for a half-maximal effect (EC50) not below 5.01 µM.

`Cn1cc(COC(=O)N2CCC3(CC2)CN(S(=O)(=O)c2ccc(C(F)F)cc2)c2ccccc23)cn1` [Compound I-176] returned an EC50 of 1.01 to 5 µM.

In turn, `CCn1ccc(COC(=O)N2CCC3(CC2)CN(S(=O)(=O)c2ccc(C(F)F)cc2)c2ccccc23)n1` [Compound I-177, (1-ethyl-1H-pyrazol-3-yl)methyl 1-((4-(difluoromethyl)phenyl)sulfonyl)spiro[indoline-3,4′-piperidine]-1′-carboxylate] returned a concentration for a half-maximal effect (EC50) of 0.51 to 1 µM.

Turning to `O=C(NCc1ccccc1)N1CCC2(CC1)CN(S(=O)(=O)c1ccc(C(F)F)cc1)c1ccccc12` [Compound I-179, N-benzyl-1-((4-(difluoromethyl)phenyl)sulfonyl)spiro[indoline-3,4′-piperidine]-1′-carboxamide], the concentration giving a half-maximal response (EC50) is not below 5.01 µM.

With `O=C(OCc1ccccc1)N1CCC2(CC1)CN(S(=O)(=O)c1ccc3c(c1)COC3)c1ccccc12` [Compound I-183, benzyl 1-((1,3-dihydroisobenzofuran-5-yl)sulfonyl)spiro[indoline-3,4′-piperidine]-1′-carboxylate], the EC50 is not above 0.5 µM.

With `O=C(OCc1ccccc1)N1CCC2(CC1)CN(C(=O)c1ccc(C(F)F)cc1)c1ccccc12` [Compound I-185, benzyl 1-(4-(difluoromethyl)benzoyl)spiro[indoline-3,4′-piperidine]-1′-carboxylate], the EC50 is not below 5.01 µM.

For the compound `CC(C)NC(=O)N1CCC2(CC1)CN(S(=O)(=O)c1ccc(C(F)F)cc1)c1ccccc12` [Compound I-192, 1-((4-(difluoromethyl)phenyl)sulfonyl)-N-isopropylspiro[indoline-3,4′-piperidine]-1′-carboxamide], the concentration giving a half-maximal response (EC50) is not below 5.01 µM.

With `O=C(NCC1CC1)N1CCC2(CC1)CN(S(=O)(=O)c1ccc(C(F)F)cc1)c1ccccc12` [Compound I-193, N-(cyclopropylmethyl)-1-((4-(difluoromethyl)phenyl)sulfonyl)spiro[indoline-3,4′-piperidine]-1′-carboxamide], the concentration giving a half-maximal response (EC50) is not below 5.01 µM.

As to `O=C(NCC(F)F)N1CCC2(CC1)CN(S(=O)(=O)c1ccc(C(F)F)cc1)c1ccccc12` [Compound I-194, N-(2,2-difluoroethyl)-1-((4-(difluoromethyl)phenyl)sulfonyl)spiro[indoline-3,4′-piperidine]-1′-carboxamide], the EC50 was not below 5.01 µM.

On to `O=C(NC1CCOC1)N1CCC2(CC1)CN(S(=O)(=O)c1ccc(C(F)F)cc1)c1ccccc12` (centres unmarked) [Compound I-195, 1-((4-(difluoromethyl)phenyl)sulfonyl)-N-(tetrahydrofuran-3-yl)spiro[indoline-3,4′-piperidine]-1′-carboxamide], for which the EC50 was not below 5.01 µM.

`CCOCCNC(=O)N1CCC2(CC1)CN(S(=O)(=O)c1ccc(C(F)F)cc1)c1ccccc12` [Compound I-196, 1-((4-(difluoromethyl)phenyl)sulfonyl)-N-(2-ethoxyethyl)spiro[indoline-3,4′-piperidine]-1′-carboxamide]: the EC50 was not below 5.01 µM.

Turning to `O=C(Nc1ccccc1)N1CCC2(CC1)CN(S(=O)(=O)c1ccc(C(F)F)cc1)c1ccccc12` [Compound I-197, 1-((4-(difluoromethyl)phenyl)sulfonyl)-N-phenylspiro[indoline-3,4′-piperidine]-1′-carboxamide], the 50% effective concentration (EC50) was not below 5.01 µM.

With `O=C(Nc1cccnc1)N1CCC2(CC1)CN(S(=O)(=O)c1ccc(C(F)F)cc1)c1ccccc12` [Compound I-198, 1-((4-(difluoromethyl)phenyl)sulfonyl)-N-(pyridin-3-yl)spiro[indoline-3,4′-piperidine]-1′-carboxamide], the EC50 was not below 5.01 µM.

`Cn1cccc1NC(=O)N1CCC2(CC1)CN(S(=O)(=O)c1ccc(C(F)F)cc1)c1ccccc12` [Compound I-199, 1-((4-(difluoromethyl)phenyl)sulfonyl)-N-(1-methyl-1H-pyrrol-2-yl)spiro[indoline-3,4′-piperidine]-1′-carboxamide] had an EC50 not below 5.01 µM.

With `Cn1cc(NC(=O)N2CCC3(CC2)CN(S(=O)(=O)c2ccc(C(F)F)cc2)c2ccccc23)cn1` [Compound I-200, 1-((4-(difluoromethyl)phenyl)sulfonyl)-N-(1-methyl-1H-pyrazol-4-yl)spiro[indoline-3,4′-piperidine]-1′-carboxamide], the EC50 was not below 5.01 µM.

The compound `O=C(NCC(F)(F)F)N1CCC2(CC1)CN(S(=O)(=O)c1ccc(C(F)F)cc1)c1ccccc12` [Compound I-201, 1-((4-(difluoromethyl)phenyl)sulfonyl)-N-(2,2,2-trifluoroethyl)spiro[indoline-3,4′-piperidine]-1′-carboxamide] displayed a half-maximal effective concentration (EC50) not below 5.01 µM.

Compound `O=C(Nc1cnsc1)N1CCC2(CC1)CN(S(=O)(=O)c1ccc(C(F)F)cc1)c1ccccc12` [Compound I-202, 1-((4-(difluoromethyl)phenyl)sulfonyl)-N-(isothiazol-4-yl)spiro[indoline-3,4′-piperidine]-1′-carboxamide] returned an EC50 not below 5.01 µM.

Turning to `O=C(NCC1CCCO1)N1CCC2(CC1)CN(S(=O)(=O)c1ccc(C(F)F)cc1)c1ccccc12` (centres unmarked) [Compound I-203, 1-((4-(difluoromethyl)phenyl)sulfonyl)-N-((tetrahydrofuran-2-yl)methyl)spiro[indoline-3,4′-piperidine]-1′-carboxamide], the EC50 was not below 5.01 µM.

On to `O=C(NCC1CCOC1)N1CCC2(CC1)CN(S(=O)(=O)c1ccc(C(F)F)cc1)c1ccccc12` (centres unmarked) [Compound I-204], for which the EC50 is not below 5.01 µM.

In turn, `O=C(NC1CCOCC1)N1CCC2(CC1)CN(S(=O)(=O)c1ccc(C(F)F)cc1)c1ccccc12` [Compound I-205, 1-((4-(difluoromethyl)phenyl)sulfonyl)-N-(tetrahydro-2H-pyran-4-yl)spiro[indoline-3,4′-piperidine]-1′-carboxamide] yielded an EC50 not below 5.01 µM.

`O=C(NC1CC(F)(F)C1)N1CCC2(CC1)CN(S(=O)(=O)c1ccc(C(F)F)cc1)c1ccccc12` [Compound I-206, N-(3,3-difluorocyclobutyl)-1-((4-(difluoromethyl)phenyl)sulfonyl)spiro[indoline-3,4′-piperidine]-1′-carboxamide]: the concentration for a half-maximal effect (EC50) was not below 5.01 µM.

In the case of `CCn1cc(NC(=O)N2CCC3(CC2)CN(S(=O)(=O)c2ccc(C(F)F)cc2)c2ccccc23)cn1` [Compound I-207, 1-((4-(difluoromethyl)phenyl)sulfonyl)-N-(1-ethyl-1H-pyrazol-4-yl)spiro[indoline-3,4′-piperidine]-1′-carboxamide], the EC50 is not below 5.01 µM.

As for `O=C(NCCn1cccn1)N1CCC2(CC1)CN(S(=O)(=O)c1ccc(C(F)F)cc1)c1ccccc12` [Compound I-208, N-(2-(1H-pyrazol-1-yl)ethyl)-1-((4-(difluoromethyl)phenyl)sulfonyl)spiro[indoline-3,4′-piperidine]-1′-carboxamide], the concentration for a half-maximal effect (EC50) is not below 5.01 µM.

Compound `Cn1cc(CNC(=O)N2CCC3(CC2)CN(S(=O)(=O)c2ccc(C(F)F)cc2)c2ccccc23)cn1` [Compound I-209, 1-((4-(difluoromethyl)phenyl)sulfonyl)-N-((1-methyl-1H-pyrazol-4-yl)methyl)spiro[indoline-3,4′-piperidine]-1′-carboxamide] gave an EC50 not below 5.01 µM.

On to `O=C(Nc1cncc(F)c1)N1CCC2(CC1)CN(S(=O)(=O)c1ccc(C(F)F)cc1)c1ccccc12` [Compound I-210, 1-((4-(difluoromethyl)phenyl)sulfonyl)-N-(5-fluoropyridin-3-yl)spiro[indoline-3,4′-piperidine]-1′-carboxamide], for which the EC50 was not below 5.01 µM.

The term EC50 denotes the concentration needed to bring the measured effect to its halfway point.
